According to article PMC5734940 (Toxicology and applied pharmacology, 2017):
Read-outs that look alike come from different tables or passages of the source.

Legend:
[1] = test system: Human iPSC-derived cardiomyocytes (iCell cardiomyocytes); format: cell-based
[2] = test system: Human iPSC-derived cardiomyocytes (iCell cardiomyocytes); experiment: Calcium flux assay; details: for Ca2+-flux phenotype in words: text to Figure 3; for Effect on beat frequency (in words): at 10 and/or 30 μM, PAHs; for Typical phenotypic response of calcium-flux signal trace: 30 μM, after 30 minutes of exposure, Figure 3
[3] = test system: Human iPSC-derived cardiomyocytes (iCell cardiomyocytes); details: 30 min after treatment, JC-10
[4] = test system: Human iPSC-derived cardiomyocytes (iCell cardiomyocytes); details: for Cytotoxicity (in words): 24 hrs, concentrations up to 30 μM
[5] = at both short-term (30 min) and longer-term exposures (24 hrs)
[6] = primarily at 24 hrs of exposure, Figure 5

C[n+]1ccc(-c2ccccc2)cc1.[I-] [1-methyl-4-phenylpyridinium iodide, 1-Methyl-4-phenylpyridinium iodide (MPP+), reference compound]
Cardiotoxic selectivity for peak frequency (selective = ratio ≥3) [1, 5]: selective | Ca2+-flux phenotype in words [2]: decrease in the peak frequency concomitant with an increase in the average peak width

Brc1ccc(Oc2cc(Br)c(Br)cc2Br)c(Br)c1 [2,2′,4,4′,5-pentabromodiphenyl ether, 2,2′,4,4′,5-Pentabromodiphenyl ether]
Cardiotoxic selectivity for peak frequency (selective = ratio ≥3) [1, 5]: selective

Brc1ccc(Oc2ccc(Br)cc2Br)c(Br)c1 [2,2′,4,4′-tetrabromodiphenyl ether, 2,2′4,4′-Tetrabromodiphenyl ether]
Cardiotoxic selectivity for peak frequency (selective = ratio ≥3) [1, 5]: selective

CCCCC(CC)COP(=O)(Oc1ccccc1)Oc1ccccc1 (centres unmarked) [2-ethylhexyl diphenyl phosphate, 2- Ethylhexyl diphenyl phosphate (EHDP)]
Effect on mitochondria / mitochondria potential (in words) [3]: selectively decreased mitochondria potential

N#CCCNCCC#N [3,3′-iminodipropionitrile, 3,3′-Iminodipropionitrile]
Response in the Calcein AM readout [4, 6]: positive response

c1cc2c3c(c1)ccc1cccc(c13)C2 [4-H-cyclopenta(d,e,f)phenanthrene, 4-H-Cyclopenta(d,e,f)phenanthrene]
Effect on beat frequency (in words) [2]: positive but generally weak effect

C1=Cc2cccc3cccc1c23 [acenaphthylene, Acenaphthylene]
Cardiotoxic selectivity for peak frequency (selective = ratio ≥3) [1, 5]: selective | Effect on beat frequency (in words) [2]: positive but generally weak effect

c1ccc2cc3ccccc3cc2c1 [anthracene, Anthracene]
Response in the Calcein AM readout [4, 6]: positive response

c1ccc2cc3c(ccc4ccccc43)cc2c1 [benz(a)anthracene, Benz(a)anthracene]
Response in the Calcein AM readout [4, 6]: positive response | Effect on beat frequency (in words) [2]: positive but generally weak effect

c1ccc2c(c1)cc1ccc3cccc4ccc2c1c34 [benzo(a)pyrene, Benzo(a)pyrene]
Effect on beat frequency (in words) [2]: positive but generally weak effect

c1ccc2c(c1)-c1cccc3c1c-2cc1ccccc13 [benzo(b)fluoranthene, Benzo(b)fluoranthene]
Response in the Calcein AM readout [4, 6]: positive response | Effect on beat frequency (in words) [2]: positive but generally weak effect

c1ccc2c(c1)c1cccc3ccc4cccc2c4c31 [benzo(e)pyrene, Benzo(e)pyrene]
Response in the Calcein AM readout [4, 6]: positive response | Typical phenotypic response of calcium-flux signal trace [2]: mild increases in peak frequency | Effect on beat frequency (in words) [2]: positive but generally weak effect

c1ccc2cc3c(cc2c1)-c1cccc2cccc-3c12 [benzo(k)fluoranthene, Benzo(k)fluoranthene]
Response in the Calcein AM readout [4, 6]: positive response | Typical phenotypic response of calcium-flux signal trace [2]: mild increases in peak frequency | Effect on beat frequency (in words) [2]: positive but generally weak effect

COc1ccc2cc3[n+](cc2c1OC)CCc1cc2c(cc1-3)OCO2 [berberine chloride, Berberine chloride, reference compound]
Cardiotoxic selectivity for peak frequency (selective = ratio ≥3) [1, 5]: selective | Ca2+-flux phenotype in words [2]: decrease in the peak frequency concomitant with an increase in the average peak width

O=C(O)CCCC[C@@H]1SC[C@@H]2NC(=O)N[C@@H]21 [biotin, Biotin, reference compound]
Typical phenotypic response of calcium-flux signal trace [2]: unaffected regular Ca2+-flux | Ca2+-flux phenotype in words [2]: regular beating pattern

CCOP(=S)(OCC)Oc1nc(Cl)c(Cl)cc1Cl [chlorpyrifos, Chlorpyrifos]
Effect on mitochondria / mitochondria potential (in words) [3]: selectively decreased mitochondria potential

CC1(C)[C@H](C(=O)O[C@H](C#N)c2cccc(Oc3ccccc3)c2)[C@@H]1C=C(Br)Br [deltamethrin, Deltamethrin]
Cardiotoxic selectivity for peak frequency (selective = ratio ≥3) [1, 5]: selective

CCCCC(CC)COC(=O)c1ccccc1C(=O)OCC(CC)CCCC (centres unmarked) [di(2-ethylhexyl) phthalate, Di(2-ethylhexyl) phthalate]
Cardiotoxic selectivity for peak frequency (selective = ratio ≥3) [1, 5]: selective

CN1C(=O)CN=C(c2ccccc2)c2cc(Cl)ccc21 [diazepam, Diazepam, reference compound]
Effect on peak frequency (in words) [2]: altered peak frequency

c1ccc2c(c1)Cc1ccccc1-2 [fluorene, Fluorene]
Cardiotoxic selectivity for peak frequency (selective = ratio ≥3) [1, 5]: selective | Effect on beat frequency (in words) [2]: positive but generally weak effect

Cl[C@H]1[C@H](Cl)[C@@H](Cl)[C@@H](Cl)[C@H](Cl)[C@H]1Cl [lindane, Lindane]
Effect on mitochondria / mitochondria potential (in words) [3]: selectively decreased mitochondria potential

CCCCCC [n-hexane, n-Hexane]
Response in the Calcein AM readout [4]: positive response | POD, Calcein AM readout ([4]; human): below 30 μM | Effect on peak frequency (in words) [2]: altered peak frequency

c1ccc2ccccc2c1 [naphthalene, Naphthalene]
Effect on beat frequency (in words) [2]: positive but generally weak effect

CCOP(=S)(OCC)Oc1ccc([N+](=O)[O-])cc1 [parathion, Parathion]
Effect on mitochondria / mitochondria potential (in words) [3]: selectively decreased mitochondria potential

CC1(C)C(C=C(Cl)Cl)C1C(=O)OCc1cccc(Oc2ccccc2)c1 (centres unmarked) [permethrin, Permethrin]
Cardiotoxic selectivity for peak frequency (selective = ratio ≥3) [1, 5]: selective

c1ccc2c(c1)ccc1ccccc12 [phenanthrene, Phenanthrene]
Effect on beat frequency (in words) [2]: positive but generally weak effect

c1cc2ccc3cccc4ccc(c1)c2c34 [pyrene, Pyrene]
Cardiotoxic selectivity for peak frequency (selective = ratio ≥3) [1, 5]: selective | Effect on beat frequency (in words) [2]: positive but generally weak effect

C=C(C)[C@H]1Cc2c(ccc3c2O[C@@H]2COc4cc(OC)c(OC)cc4[C@@H]2C3=O)O1 [rotenone, Rotenone]
Cytotoxicity (in words) [4]: highly cytotoxic | POD values in most other endpoints queried, including cytotoxicity ([2]; endpoints other than JC-10 at 30 min): below 30 μM | Ca2+-flux phenotype in words [2]: Negative inotropic effects

CC(C)(C)C(O)(CCc1ccc(Cl)cc1)Cn1cncn1 (centres unmarked) [tebuconazole, Tebuconazole]
Effect on mitochondria / mitochondria potential (in words) [3]: selectively decreased mitochondria potential

O=P(Oc1ccccc1)(Oc1ccccc1)Oc1ccccc1 [triphenyl phosphate, Triphenyl phosphate]
Effect on mitochondria / mitochondria potential (in words) [3]: selectively decreased mitochondria potential

CC(C)[C@@H]1NC(=O)[C@H](C)OC(=O)[C@@H](C(C)C)NC(=O)[C@@H](C(C)C)OC(=O)[C@H](C(C)C)NC(=O)[C@H](C)OC(=O)[C@@H](C(C)C)NC(=O)[C@@H](C(C)C)OC(=O)[C@H](C(C)C)NC(=O)[C@H](C)OC(=O)[C@@H](C(C)C)NC(=O)[C@@H](C(C)C)OC1=O [valinomycin, Valinomycin, reference compound]
Cytotoxicity (in words) [4]: highly cytotoxic | Effect on mitochondria / mitochondria potential (in words) [3]: strong effect

Phenol, isopropylated, phosphate (3:1)
Cardiotoxic selectivity for peak frequency (selective = ratio ≥3) [1]: selective | Shape of concentration response for cardiomyocyte peak frequency [2]: non-monotonic concentration responses
